Numbered stars: 1 amine (or outer) side, 2 acyl side, 3 side chain; on linkers, the order of the positions; unused ones are H or OH. Bridge positions count the residues as written; N and C are the ends. Square brackets hold non-standard residues; d marks the D form. Side chains are listed from the residue outwards. Peptide text beside a SMILES is read from it. * marks the point of attachment. X1 = O=C([C@H](Cc1ccc(-n2nnc3c2-c2ccccc2CN([*:3])c2ccccc2-3)cc1)N[*:1])[*:2]; X2 = Cc1c(CC(=O)*)c(=O)oc2cc(N)ccc12; βAla = NCCC(=O)O
How the values were obtained:
[1] = test system: porcine pancreatic trypsin; assay: Binding to commercial porcine pancreatic trypsin; conditions: Fig. S8
[2] = cited from earlier work

Compound | binding to porcine pancreatic trypsin ([1]; commercial trypsin) | effect of the fluorophore in loop 2 on biological activity ([1]; trypsin binding) | oral uterotonic activity [2]
CC[C@H](C)[C@@H]1NC(=O)[C@@H]2CSSC[C@@H]3NC(=O)[C@H](C(C)C)NC(=O)CNC(=O)CNC(=O)[C@H](CC(=O)O)NC(=O)[C@H](CO)NC(=O)CNC(=O)[C@H](CO)NC(=O)CNC(=O)[C@@H]4CSSC[C@H](NC(=O)[C@H](CC(=O)O)NC(=O)[C@H](CO)NC(=O)[C@H](Cc5ccc(-n6nnc7c6-c6ccccc6CN(C(=O)CCNC(=O)Cc6c(C)c8ccc(N)cc8oc6=O)c6ccccc6-7)cc5)NC(=O)[C@H](CCCNC(=N)N)NC(=O)[C@H](CCCNC(=N)N)NC(=O)[C@H](CSSC[C@H](NC1=O)C(=O)N[C@@H](CCCNC(=N)N)C(=O)NCC(=O)N[C@@H](CC(N)=O)C(=O)NCC(=O)N[C@@H](Cc1ccc(O)cc1)C(=O)N4)NC(=O)[C@H](CCCNC(=N)N)NC(=O)[C@H](CCC(N)=O)NC(=O)[C@H](CC(C)C)NC(=O)[C@H]([C@@H](C)CC)NC(=O)[C@H](CCCCN)NC(=O)[C@@H]1CCCN1C3=O)C(=O)N1CCC[C@H]1C(=O)NCC(=O)N[C@@H](C)C(=O)N2 [AMCA-labeled MCoTI-AziF] (cyclo(ACICRGNGYCGSGSDGGVCPKILQRCRR[X1]([βAla-X2])SDCPG); disulfide 2-19, 4-26, 10-32) | able to bind commercial porcine pancreatic trypsin efficiently | did not have a detrimental effect on its biological activity | –
kalata B1: the first cyclotide to be discovered (GLPVCGETCVGGTCNTPGCTCSWPVCTRN; Kalata-B1; UniProt P56254 89-117, looked up) | – | – | orally effective uterotonic

Source: paper PMC3767473 (Angewandte Chemie (International ed. in English), 2013)
